Counter-ions that a name gives are not always drawn.

In the first assay the target is BIR3 domain of XIAP (Homo sapiens (Human), UniProt P98170). Kind of assay: TR-FRET assay for BIR3 (inhibition of binding to Peptide A).
Sequence of BIR3 domain of XIAP (P98170 other isoform, or with tags, fused parts or gaps): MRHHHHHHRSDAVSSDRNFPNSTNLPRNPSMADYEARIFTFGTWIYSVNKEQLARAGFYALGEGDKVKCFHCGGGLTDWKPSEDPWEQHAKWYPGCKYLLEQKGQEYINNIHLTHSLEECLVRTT
Conditions: not given
As to the method: TR-FRET Assay for BIR2 and BIR3
Percentage of inhibition at each concentration was determined to generate an IC50 value for each test compound.
Compound `CN[C@@H](C)C(=O)N[C@H]1CCc2ccccc2N(Cc2c(OC)ccc3cc(-c4noc(=O)[nH]4)ccc23)C1=O` [Example 31, (S)—N—{(S)-1-[2-Methoxy-6-(5-oxo-4,5-dihydro-[1,2,4]oxadiazol-3-yl)-naphthalen-1-ylmethyl]-2-oxo-2,3,4,5-tetrahydro-1H-benzo[b]azepin-3-yl}-2-methylamino-propionamide hydrochloride] yielded an IC50 of 45 µM.

The assay is the same for the next values; noted with them: 6x His-tagged BIR3 domain (aa 241-356 of XIAP), 20 nM Peptide A, 10 concentrations.
`CN[C@@H](C)C(=O)N[C@H]1CCc2ccccc2N(Cc2ccncc2)C1=O` [Example 2h, (S)-2-Methylamino-N—((S)-2-oxo-1-pyridin-4-ylmethyl-2,3,4,5-tetrahydro-1H-benzo[b]azepin-3-yl)-propionamide hydrochloride]: the IC50 is more than 54.8 µM.

For the compound `CN[C@@H](C)C(=O)N[C@H]1CCc2ccccc2N(Cc2cncn2C)C1=O` [Example 2i, (S)-2-Methylamino-N—[(S)-1-(3-methyl-3H-imidazol-4-ylmethyl)-2-oxo-2,3,4,5-tetrahydro-1H-benzo[b]azepin-3-yl]-propionamide hydrochloride], the IC50 was more than 54.8 µM.

The compound `CC[C@H](N)C(=O)N[C@H]1CCc2ccccc2N(Cc2c(OC)cnc3ccccc23)C1=O` [Example 3, (S)-2-amino-N—((S)-1-((3-methoxyquinolin-4-yl)methyl)-2-oxo-2,3,4,5-tetrahydro-1H-benzo[b]azepin-3-yl)butanamide] gave an IC50 of 49.9 µM.

`CC[C@H](NCCO)C(=O)N[C@H]1CCc2ccccc2N(Cc2c(OC)cnc3ccccc23)C1=O` [Example 4, (S)-2-(2-Hydroxyethylamino)-N—((S)-1-((3-methoxyquinolin-4-yl)methyl)-2-oxo-2,3,4,5-tetrahydro-1H-benzo[b]azepin-3-yl)butanamide]: the IC50 is more than 54.8 µM.

Compound `CC[C@H](N)C(=O)N[C@@H]1CCc2ccccc2N(Cc2c(OC)ccc3cc(Br)ccc23)C1=O` [Example 5a, (S)-2-Amino-N—[(R)-1-(6-bromo-2-methoxy-naphthalen-1-ylmethyl)-2-oxo-2,3,4,5-tetrahydro-1H-benzo[b]azepin-3-yl]-butyramide hydrochloride] yielded an IC50 of more than 54.8 µM.

On to `CC[C@H](NCCO)C(=O)N[C@H]1CCc2ccccc2N(Cc2c(OC)ccc3cc(Br)ccc23)C1=O` [Example 6, (S)—N—((S)-1-((6-Bromo-2-methoxynaphthalen-1-yl)methyl)-2-oxo-2,3,4,5-tetrahydro-1H-benzo[b]azepin-3-yl)-2-(2-hydroxyethylamino)butanamide], for which the IC50 was 39.7 µM.

`CC[C@H](NCc1ccccc1)C(=O)N[C@H]1CCc2ccccc2N(Cc2c(OC)ccc3cc(Br)ccc23)C1=O` [Example 8, (S)-2-(Benzylamino)-N—((S)-1-((6-bromo-2-methoxynaphthalen-1-yl)methyl)-2-oxo-2,3,4,5-tetrahydro-1H-benzo[b]azepin-3-yl)butanamide] came in with an IC50 of more than 54.8 µM.

`CC[C@H](NC1COC1)C(=O)N[C@H]1CCc2ccccc2N(Cc2c(OC)ccc3cc(Br)ccc23)C1=O` [Example 9, (S)—N—((S)-1-((6-Bromo-2-methoxynaphthalen-1-yl)methyl)-2-oxo-2,3,4,5-tetrahydro-1H-benzo[b]azepin-3-yl)-2-(oxetan-3-ylamino)butanamide] gave an IC50 of more than 54.8 µM.

With `COc1ccc2cc(Br)ccc2c1CN1C(=O)[C@@H](NC(=O)[C@@H](N)[C@H](C)O)CCc2ccccc21` [Example 10, (2S,3S)-2-Amino-N—((S)-1-((6-bromo-2-methoxynaphthalen-1-yl)methyl)-2-oxo-2,3,4,5-tetrahydro-1H-benzo[b]azepin-3-yl)-3-hydroxybutanamide hydrochloride], the IC50 was more than 54.8 µM.

Take `COc1ccc2cc(Br)ccc2c1CN1C(=O)[C@@H](NC(=O)[C@@H](N)[C@@H](C)O)CCc2ccccc21` [Example 11, (2S,3R)-2-Amino-N—((S)-1-((6-bromo-2-methoxynaphthalen-1-yl)methyl)-2-oxo-2,3,4,5-tetrahydro-1H-benzo[b]azepin-3-yl)-3-hydroxybutanamide hydrochloride]: the IC50 is more than 54.8 µM.

The compound `COc1ccc2cc(Br)ccc2c1CN1C(=O)[C@@H](NC(=O)[C@@H](N)C2CC2)CCc2ccccc21` [Example 13, hydrochloride] yielded an IC50 of more than 54.8 µM.

Compound `CN[C@@H](C)C(=O)N[C@H]1CCc2ccccc2N(Cc2c(C#CC3(O)COC3)ccc3ccccc23)C1=O` [Example 14, (S)—N—{(S)-1-[2-(3-Hydroxy-oxetan-3-ylethynyl)-naphthalen-1-ylmethyl]-2-oxo-2,3,4,5-tetrahydro-1H-benzo[b]azepin-3-yl}-2-methylamino-propionamide] had an IC50 of more than 54.8 µM.

With `CCCOc1ccc2ccccc2c1CN1C(=O)[C@@H](NC(=O)[C@H](C)NC)CCc2ccccc21` [Example 15, (S)-2-Methylamino-N—[(S)-2-oxo-1-(2-propoxy-naphthalen-1-ylmethyl)-2,3,4,5-tetrahydro-1H-benzo[b]azepin-3-yl]-propionamide hydrochloride], the IC50 was more than 54.8 µM.

On to `C=CCOc1ccc2ccccc2c1CN1C(=O)[C@@H](NC(=O)[C@H](C)NC)CCc2ccccc21` [Example 16, (S)—N—[(S)-1-(2-Allyloxy-naphthalen-1-ylmethyl)-2-oxo-2,3,4,5-tetrahydro-1H-benzo[b]azepin-3-yl]-2-methylamino-propionamide], for which the half-inhibitory concentration (IC50) is more than 54.8 µM.

`CN[C@@H](C)C(=O)N[C@H]1CCc2ccccc2N(Cc2c(O)ccc3ccccc23)C1=O` [Example 17, (S)—N—[(S)-1-(2-Hydroxy-naphthalen-1-ylmethyl)-2-oxo-2,3,4,5-tetrahydro-1H-benzo[b]azepin-3-yl]-2-methylamino-propionamide hydrochloride] yielded an IC50 of more than 54.8 µM.

For `CN[C@@H](C)C(=O)N[C@H]1CCc2ccc(OCc3ccccc3)cc2N(Cc2c(C)ccc3ccccc23)C1=O` [Example 18, (S)—N—[(S)-8-Benzyloxy-1-(2-methyl-naphthalen-1-ylmethyl)-2-oxo-2,3,4,5-tetrahydro-1H-benzo[b]azepin-3-yl]-2-methylamino-propionamide hydrochloride], the IC50 was more than 54.8 µM.

The compound `CN[C@@H](C)C(=O)N[C@H]1CCc2ccccc2N(Cc2csc3ccc(Br)cc23)C1=O` [Example 19, (S)—N—[(S)-1-(5-Bromo-benzo[b]thiophen-3-ylmethyl)-2-oxo-2,3,4,5-tetra hydro-1H-benzo[b]azepin-3-yl]-2-methylamino-propionamide hydrochloride] registered a concentration for half-maximal inhibition (IC50) of 27.4 µM.

In turn, `CN[C@@H](C)C(=O)N[C@H]1CCc2ccccc2N(Cc2csc3ccccc23)C1=O` [Example 20, (S)—N—((S)-1-Benzo[b]thiophen-3-ylmethyl-2-oxo-2,3,4,5-tetrahydro-1H-benzo[b]azepin-3-yl)-2-methylamino-propionamide] had an IC50 of more than 57.6 µM.

`CN[C@@H](C)C(=O)N[C@H]1CCc2ccc(-c3ccccc3)cc2N(Cc2c(C)ccc3ccccc23)C1=O` [Example 21, (S)-2-Methylamino-N—[(S)-1-(2-methyl-naphthalen-1-ylmethyl)-2-oxo-8-phenyl-2,3,4,5-tetrahydro-1H-benzo[b]azepin-3-yl]-propionamide hydrochloride] showed an IC50 of more than 57.6 µM.

Regarding `CN[C@@H](C)C(=O)N[C@H]1CCc2ccc(OCc3ccccc3)cc2N(Cc2ccccc2)C1=O` [Example 22, (S)—N—((S)-1-Benzyl-8-benzyloxy-2-oxo-2,3,4,5-tetrahydro-1H-benzo[b]azepin-3-yl)-2-methylamino-propionamide hydrochloride], the IC50 is more than 57.6 µM.

Compound `CN[C@@H](C)C(=O)N[C@H]1CCc2ccc(OCCc3ccccc3)cc2N(Cc2ccccc2)C1=O` [Example 23, (S)—N—((S)-1-Benzyl-2-oxo-8-phenethyloxy-2,3,4,5-tetrahydro-1H-benzo[b]azepin-3-yl)-2-methylamino-propionamide hydrochloride] had an IC50 of more than 54 µM.

`CN[C@@H](C)C(=O)N[C@H]1CCc2ccc(OC)cc2N(Cc2ccccc2)C1=O` [Example 24, (S)—N—((S)-1-Benzyl-8-methoxy-2-oxo-2,3,4,5-tetrahydro-1H-benzo[b]azepin-3-yl)-2-methylamino-propionamide hydrochloride] yielded an IC50 of more than 54.2 µM.

The compound `CN[C@@H](C)C(=O)N[C@H]1CCc2ccc(OCCCc3ccccc3)cc2N(Cc2ccccc2)C1=O` [Example 25, (S)—N—[(S)-1-Benzyl-2-oxo-8-(3-phenyl-propoxy)-2,3,4,5-tetrahydro-1H-benzo[b]azepin-3-yl]-2-methylamino-propionamide hydrochloride] registered an IC50 of more than 54 µM.

As for `CN[C@@H](C)C(=O)NC1CCc2ccc(Br)cc2N(Cc2ccccc2)C1=O` (stereo partly drawn) [Example 26, (S)—N-(1-Benzyl-8-bromo-2-oxo-2,3,4,5-tetrahydro-1H-benzo[b]azepin-3-yl)-2-methylamino-propionamide hydrochloride], the IC50 was more than 54.8 µM.

In turn, `CN[C@H](C)C(=O)N[C@H]1CCc2ccccc2N(Cc2c(OC)ccc3cc(Br)ccc23)C1=O` [Example 27, (R)—N—[(S)-1-(6-Bromo-2-methoxy-naphthalen-1-ylmethyl)-2-oxo-2,3,4,5-tetrahydro-1H-benzo[b]azepin-3-yl]-2-methylamino-propionamide hydrochloride] returned an IC50 of more than 54.8 µM.

`CN[C@@H](C)C(=O)N[C@H]1CCc2ccccc2N(Cc2cccc3ccc(-c4nnn[nH]4)cc23)C1=O` [Example 28, (S)-2-Methylamino-N—{(S)-2-oxo-1-[7-(1H-tetrazol-5-yl)-naphthalen-1-ylmethyl]-2,3,4,5-tetrahydro-1H-benzo[b]azepin-3-yl}-propionamide]: the IC50 was more than 54.8 µM.

Turning to `CN[C@@H](C)C(=O)N[C@H]1CCc2ccccc2N(Cc2c(OC)ccc3cc(-c4nc(C)cs4)ccc23)C1=O` [Example 30, (S)—N—{(S)-1-[2-Methoxy-6-(4-methyl-thiazol-2-yl)-naphthalen-1-ylmethyl]-2-oxo-2,3,4,5-tetrahydro-1H-benzo[b]azepin-3-yl}-2-methylamino-propionamide hydrochloride], the IC50 was more than 54.8 µM.

For the origin of these results see US9611224B2 (Hoffmann-La Roche Inc., priority 2012, dated 2017).
